Data as given in patent US10400010B2, “Structure-based peptide inhibitors of P53 aggregation as a new approach to cancer therapeutics” (THE REGENTS OF THE UNIVERSITY OF CALIFORNIA, priority 2013, dated 2019).
“Also recorded” adds a separate entry of the source.

Experiments:
[1] = tested on: cancer cells bearing misfolded/aggregation-prone mutant p53; assay: Cell viability, standard MTS assay, 2D culture; format: cell-based; settings: 24 hours
Protocol: (§1) B. and C. show one representative case of primary cells from ovarian cancer.
INH-1R caused cell death in a dose dependent manner with less than 50% of cancer cells surviving after only 24 hours of treatment with a dose of 10 μM in a 2D culture system as detected by a standard MTS assay (FIG. 7A). […] In this case cells were plated in 1:1 mixture of PrEGM:matrigel. After cell layer solidified, cells were overlaid with warm PrEGM media containing either the inhibitor or a scrambled control peptide at concentration ranging from 0.1 to 10 μM for 5 to 7 days.

[2] = Serum concentration by MRM mass spectrometry (pharmacokinetic profile); format: in vivo, Nude mice
Protocol: Nude mice were injected in the flank with OVCAR-3 cells and the resulting xenografts were allowed to grow for two weeks. The mice were then treated for three days via IP with 15 mg/kg of INH-1R CPP peptide or scrambled control peptide. They were divided in groups of two and sacrificed at 1, 2, 4, 8, 12 and 24 hours post final peptide injection. Two naïve mice were sacrificed before treatment to obtain a reference value. Peak serum concentration of INH-1R CPP (as well as control peptide) was detected at 1 hour post injection. Average of two mice are shown.
The peptide concentration decreased to approximately 0.3 μM 2 hours post infusion, and remained stable for up to 12 hours (FIG. 10). Given the relative stability of the peptide in serum, IV administration is an acceptable alternative route of administration.

OVCAR-3 cells [3] = assay: Cell death by FACS (cell size and granularity); format: cell-based; settings: 10 μM, 24 hours
Protocol: Cells treated for 24 hours with either INH-1R or a control peptide were trypsinized and analyzed by FACS.

[4] = tested on: cancer cell lines (OVCAR-3, CAOV-3, WiDr, Detroit 562) and primary cells from ovarian cancer patients; assay: Cell entry and co-localization of FITC labeled inhibitor by fluorescence microscopy; format: cell-based, human; settings: 24 hours
Source text: INH-1R CPP was covalently linked to a FITC fluorescent label and added to different cancer cell lines or primary cells directly obtained from ovarian cancer patients (as depicted here). […] The cell nuclei are stained with Hoechst 33342 (blue), while p53 is recognized by an anti-p53 antibody and stained in red. […] Protein aggregates are stained with the commercially available OC antibody (in red).
To render the inhibitors cell permeable, the inventors fused the peptide-inhibitor panel to a nine-residue poly arginine tag through a three-residue linker, of sequence RPI, derived from endogenous p53 sequence. To confirm their ability to enter cells, the cell penetrating INH-1R inhibitor was linked to a FITC moiety in order to detect the intracellular localization of the probe by fluorescence microscopy (FIG. 4). We treated different cancer cell lines, including but not limited to OVCAR-3, CAOV-3, WiDr, Detroit 562 as well as primary cells derived from cancer patients with the FITC labeled inhibitor for 24 hours. After extensive washes to remove unbound inhibitors, the cells were fixed in formaldehyde and p53 was stained using a commercially available p53 antibody. […] Additionally, the inhibitor was found co-localized with protein aggregates as stained by the conformation specific antibody OC (Kayed et al, 2007, FIG. 4B).

[5] = tested on: p53 target genes p21 and Mdm2; assay: Up-regulation of p53 target genes by QPCR or RNAseq; format: cell-based; settings: tumor cells with p53 misfolding/aggregating mutations
Source text: Specificity and efficacy of INH-1R CPP was confirmed by up-regulation of p53 target genes only in tumor cells containing p53 misfolding/aggregating mutations.

[6] = biological target: T1, p53 aggregation (segment p53252-258, LTIITLE) (Homo sapiens, UniProt P04637); assay: In vitro Thioflavin T aggregation assay; format: biochemical; settings: different concentrations, down to molar ratio 1 inhibitor to 10 p53 molecules
T1 construct: made in house; host or cells: chemical synthesis
Source text: The aggregation of p53 is monitored via Thioflavin T assay: an increase in Thioflavin T fluorescence is detected over time due to the formation of increasing amounts of amyloid to which the dye can specifically bind. […] The sequence of this segment, LTIITLE, is SEQ ID NO: 21.
One representative in vitro assay is the thioflavin T assay shown in FIG. 3 (Naiki, H., Higuchi, K., Hosokawa, M., and Takeda, T. (1989) Fluorometric determination of amyloid fibrils in vitro using the fluorescent dye, thioflavine T. Anal. Biochem., 177, 244-249). The assay can be performed using a target sequence peptide, such as LTIITLE (SEQ ID NO: 21), or it can be performed using full-length p53 (such as recombinant p53). In both cases, the peptide (e.g. LTIITLE) (SEQ ID NO: 21) or the p53 is placed in solution with thioflavin T and increasing concentrations of inhibitor. The assay is performed in a multiwall plate (e.g. a 384 well plate). This dye is amyloid specific and is only fluorescent when bound to amyloid aggregates. The fluorescence is measured over time, e.g. with a plate reader. Inhibition is detected as a delay in the onset of aggregation and/or less total amount of aggregates formed.
The designed inhibitors were synthesized and tested in an in vitro Thioflavin T aggregation assay (FIG. 3).

OVCAR-3 cell lysates = assay: p53 levels in cell lysates by Western Blot; format: cell-based; settings: 0, 1, 5 or 10 μM, 24 hours
Source text: The properly folded p53 (see FIG. 6) can now be degraded as is WT p53. The hyperstability due to misfolding/aggregation is lost, and the protein turnover is fast.
(§2) Properly folded p53 is rapidly degraded in cells as a control mechanism. Misfolded/aggregated p53 cannot be efficiently targeted for degradation therefore protein levels are high in the absence of the inhibitor. This is additional evidence of the ability of the INH-1R to generate a population of folded p53.

[7] = tested on: OVCAR-3 cells bearing the aggregation prone p53 R248Q mutation (xenograft); assay: OVCAR-3 xenograft tumor proliferation in vivo; design: species or system NOD/SCID mice
Protocol: A. Images of the xenografts from mice (n=3 for each group, one mouse had 2 xenografts) treated with INH-1R CPP, a scrambled peptide control, or vehicle for 14 days. […] C. Tumor volume was estimated daily.
In our in vivo studies, we attempted to mimic a post-surgical debulking situation in which patients with minimal residual tumor mass are administered chemotherapy. NOD/SCID mice were injected subcutaneously with OVCAR-3 cells bearing the aggregation prone p53 R248Q mutation and treated intraperitoneally with 15 mg/kg of either INH-1R as a single therapeutic agent, a control scrambled peptide, or vehicle daily for 14 days (FIG. 9).

[8] = tested on: primary cells from ovarian cancer; assay: Apoptosis (AnnexinV stain) and proliferation (Ki67 stain); format: cell-based; settings: increasing dosage
Source text: as §1

[9] = tested on: stable cell line derived from an ovarian cancer tumor (PA40 cells); assay: p53 re-localization and refolding, DO-1 and PAb240 antibody stain; format: cell-based
Source text: A stable cell line derived from an ovarian cancer tumor is stained with the commercially available DO-1 antibody which recognizes any p53, irrespective of its structural state. […] The PAb240 commercial antibody recognizes misfolded p53, therefore loss of PAb240 antigeneicity reflects a change in the p53 population from misfolded to properly folded, functionally capable protein.
as §2

OVCAR-3 cells [10] = assay: Apoptosis and necrosis, combined Hoechst/PI/YO-PRO-1 stain; format: cell-based; settings: 24 hours
Protocol: OVCAR-3 cells were treated for 24 hours with the indicated concentrations of either INH-1R CPP or a scrambled inhibitor sequence. Hoechst (blue) stains all nuclei while YO-PRO-1 (green) only stains apoptotic cells and propidium iodide (red) stains late apoptotic/necrotic cells.

MCF-7 (WT p53) = assay: p53 re-localization in WT p53 control cells; format: cell-based; settings: WT p53 bearing cells MCF 7
Source text: The structure-guided, rationally designed p53 amyloid inhibitors of the invention specifically target those cancer cells bearing p53 molecules having an aberrant conformation (e.g. aggregated or misfolded p53). […] We then tested the inhibitor on established cancer cell lines as well as on primary cells derived from serous ovarian cancer patients in order to confirm the clinical relevance of our findings. Our inhibitor is designed to specifically target those tumor cells expressing an altered misfolded form of p53 and should have no effect on cells bearing functional, properly folded p53 or aggregation-incompetent p53 mutants. To confirm this, we included several controls. Three established cell lines, one bearing WT p53 (MCF-7) and two which were previously characterized for their p53 aggregation status, one with a non-aggregating mutation (WiDr) and one with a p53 aggregation prone mutation (Detroit 562), were used as negative and positive controls. One of the effects of the inhibitor was to cause re-localization of p53 from the cytosolic compartment to the nucleus (FIG. 5).

Row | SMILES | Cancer cells surviving (cell viability, MTS) ([1]; 10 μM, 2D culture) | Time serum concentration remained stable ([2]; 15 mg/kg IP) | Tmax ([2]; nude, mouse, serum, 15 mg/kg IP for three days, read-out: Time of peak serum concentration post injection) [h] | Cmax ([2]; nude, mouse, serum, 15 mg/kg IP, 1 hour after injection, read-out: Serum peak concentration) [nM] | level at time molar at 2 h ([2]; nude, mouse, serum, 15 mg/kg IP, 2 hours, read-out: Serum concentration 2 hours post infusion) [nM] | Cell size and granularity (FACS) (OVCAR-3 cells [3]) | Cancer cells surviving (cell viability, MTS) ([1]; 10 µM) | Ability to enter cells (intracellular localization) [4] | Up-regulation of p53 target genes [5] | Inhibition of p53 aggregation (Thioflavin T fluorescence over time) [6] | Total amount of p53 (OVCAR-3 cell lysates) | p53 target genes MDM2 and p21 in residual tumor tissue ([7]; 15 mg/kg IP daily for 14 days) | Xenograft mass reduction in weight ([7]; 15 mg/kg intraperitoneally daily for 14 days) [%] | Apoptosis (AnnexinV stain) [8] | Cell proliferation (Ki67 stain) [8] | Recognition of p53 by PAb240 (misfolded p53) [9] | Apoptosis and necrosis (Hoechst/PI/YO-PRO-1 stain) (OVCAR-3 cells [10]) | Re-localization of p53 from cytosol to nucleus (MCF-7 (WT p53))
1 | CC[C@H](C)[C@H](NC(=O)[C@H](CCCNC(=N)N)NC(=O)[C@@H](NC(=O)[C@H](CC(C)C)NC(=O)[C@@H](NC(=O)[C@@H]1CCCN1C(=O)[C@H](CCCNC(=N)N)NC(=O)[C@H](CCCNC(=N)N)NC(=O)[C@H](CCCNC(=N)N)NC(=O)[C@H](CCCNC(=N)N)NC(=O)[C@H](CCCNC(=N)N)NC(=O)[C@H](CCCNC(=N)N)NC(=O)[C@H](CCCNC(=N)N)NC(=O)[C@H](CCCNC(=N)N)NC(=O)[C@H](CCCNC(=N)N)NC(=O)[C@@H](N)CCCNC(=N)N)[C@@H](C)CC)[C@@H](C)O)C(=O)N[C@H](C(=O)N[C@@H](CC(C)C)C(=O)N[C@@H](CCC(=O)O)C(=O)O)[C@@H](C)O [INH-1R CPP, RRRRRRRRRRPILTRITLE] | Dose dependent reduction of cell viability | up to 12 hours | 1 | ~1200 | ~300 | – | – | – | – | – | – | – | – | – | – | – | – | –
2 | CC[C@H](C)[C@H](NC(=O)[C@H](CCCNC(=N)N)NC(=O)[C@@H](NC(=O)[C@H](CC(C)C)NC(=O)[C@@H](NC(=O)[C@@H]1CCCN1C(=O)[C@H](CCCNC(=N)N)NC(=O)[C@H](CCCNC(=N)N)NC(=O)[C@H](CCCNC(=N)N)NC(=O)[C@H](CCCNC(=N)N)NC(=O)[C@H](CCCNC(=N)N)NC(=O)[C@H](CCCNC(=N)N)NC(=O)[C@H](CCCNC(=N)N)NC(=O)[C@H](CCCNC(=N)N)NC(=O)[C@H](CCCNC(=N)N)NC(=O)[C@@H](N)CCCNC(=N)N)[C@@H](C)CC)[C@@H](C)O)C(=O)N[C@H](C(=O)N[C@@H](CC(C)C)C(=O)N[C@@H](CCC(=O)O)C(=O)O)[C@@H](C)O [INH-1R] | – | – | – | – | – | a decrease in cell size and increase in granularity | less than 50% | able to penetrate the cell membrane, but also to actually enter the nucleus and co-localize with its target, p53 | up-regulation of p53 target genes only in tumor cells bearing aggregation-prone mutations | delay the aggregation onset and lower the total amount of aggregates present, in a concentration dependent fashion; also recorded: delayed the onset of aggregation and lowered the amount of aggregates present at all concentrations tested | decreasing in a dose dependent manner | pronounced p21 and MDM2 activation | 75 | increase in apoptosis | decrease in cell proliferation | failed to be recognized by the antibody PAb240 | Apoptosis as well as necrosis were induced specifically | not observed
